Source: US20030124132A1 (University of Texas, published 2003)

Assays:
[1] = test system: L540rec human Hodgkin's lymphoma tumors; assay: Tumor tissue necrosis in L540 Hodgkin's lymphoma-bearing mice after tTF and/or endotoxin; assay type: in vivo, SCID mice
Protocol: For in vivo studies, a metastasizing mouse model for human Hodgkin's lymphoma was used. 1×10^7 L540rec cells were injected subcutaneously into the right flank of SCID mice resulting in a subcutaneous tumor with lymph node metastases in the regional lymph node stations. Subcutanous tumors were measured with a caliper in three perpendicular directions a. b, and c, and volumes calculated according to the formula V=π/6×a×b×c.
Treatment was initiated when subcutaneous tumors reached a size of 150 to 300 μl. Reagents were administered into the lateral tail vein.
(§1) Mice were closely observed after treatment for clinical signs of toxicity and clinical status was documented at defined time points (5 minutes, 10 minutes, 15 minutes, 30 minutes. 1 hour, 2 hours, 24 hours, 48 hours, 72 hours). Blood samples were taken from the tail vein at 1 hour, 2 hours and 24 hours to measure TNFα blood levels. Three days after treatment, the mice were anesthetized, blood samples were taken from the vena cava for coagulation tests, and an autopsy was performed to document any changes in gross pathology. Tumors, lymph node metastases and the major normal organs (heart, lung, brain, liver, kidney, colon, spleen, pancreas) were harvested and prepared for histological analysis.
Tissue samples harvested at the time of autopsy were fixed in 3% NBF (normal buffered formalin) and embedded in paraffin wax. Tissue blocs were cut, dewaxed and stained with hematoxilin and eosin (H&E). Tissue sections were analyzed on a light microscope by two independent investigators and histological findings were documented. Tumor sections with necrotic areas were scanned with a GS-700 imaging densitometer (Biorad, Hercules, Calif.) and areas of necrosis were calculated as % of total section area. Statistical Analysis was performed using SPSS software (SPSS Science Software, Erkrath, Germany) applying the Mann-Whitney-U-test for ungrouped data.

TNFα = TNFα serum levels in treated animals (Quantikine-M kit); assay type: in vivo, mice; conditions: tTF containing no endotoxin (n=6); any of the time points
Protocol: as §1
TNFα levels in serum were deter-mined using the Quantikine-M kit (R&D Systems, Minneapolis, Minn.) according to the manufacturer's instructions.

[2] = test system: 2F2B mouse endothelial cells; assay: Binding of tTF to tissue factor-expressing endothelial cells (FACS, cell bound coagulation assay); assay type: cell-based; conditions: FACS analysis or cell bound coagulation assay
Protocol: Cells were washed and coagulation factor mix (as described above) was added. S2765 substrate was added and Factor Xa generation was measured as described above.
2F2B cells were stimulated with LPS (20 μg/ml) or TNFα (500 U/ml) for 4 h at 37° C. […] Fluorescent cells were detected on a flow cytometer (Becton Dickinson, San Jose, Calif.).

C1300 (Muγ) tumors = assay: Coaguligand (B21-2/10H10 + tTF) treatment of C1300 (Muγ) tumors; assay type: in vivo, BALB/c nu/nu mice; conditions: paraffin sections, 30 minutes to 24 hours after administration
Source text: To improve the C1300 (Muγ) tumor model, the C1300 (Muγ) cell line was subcloned into a cell line that can grow without being mixed with its parental cell, C1300, but still express the I-A^d MHC Class II antigen on the endothelial cells of the tumor. […] Vessels in other normal tissues were unstained.
Vessels contained platelet aggregates, packed red cells and fibrin. At this time, tumor-cells were viable, being indistinguishable morphologically from tumor cells in untreated mice. […]
To establish tumors, 10^6 to 1.5×10^7 tumor cells were injected subcutaneously into the right anterior flank of the mice. […] Other mice received equivalent quantities IgG, Fab′ or bispecific antibody alone. […]
Twenty-four hours after being injected with tTF or immunoglobulin-tTF conjugates, the mice were anesthetized with metophane and were exsanguinated by perfusion with heparinized saline. […] Blood vessels having open lumens containing erythrocytes and blood vessels containing thrombi were counted. […]
Other mice received equivalent quantities of bispecific antibody alone. […] Perpendicular tumor diameters were measured at regular intervals and tumor volumes were calculated.

[3] = test system: A20 lymphoma cells (I-A^d positive), mouse or human plasma; assay: In vitro coagulation assay on A20 cells with capture bispecific antibody B21-2/10H10; assay type: cell-based; conditions: for coagulation time: cells alone 190 seconds

Which “% tumor necrosis” value ([1]; Table 2, tTF alone, three days after i.v. treatment) does the source give for “tTF: extracellular domain of the mature Tissue Factor protein (amino acid 1-219), recombinant; depyrogenated in Example X” here?
The value was 4%.

And the tumor tissue necrosis ([1]; endotoxin-free tTF alone, 4 μg or 16 μg i.v., three days after treatment)?
Its tumor tissue necrosis is 0%.

What about the anti-tumor effect ([1]; tTF alone, 4 μg to 16 μg) of the same substance?
Its anti-tumor effect is “no anti-tumor effect”.

And the anti-tumor effect ([1]; tTF alone, 100 μg)?
The anti-tumor effect was “anti-tumor effects begin to appear”.

What about the TNFα in serum (TNFα) of the same substance?
The TNFα in serum was “could not be detected”.

What about the “binding to endothelial cells expressing tissue factor” value [2] of the same substance?
Its value is “no binding of tTF to endothelial cells”.

And the “thrombi or abnormalities in normal organs” value (C1300 (Muγ) tumors)?
Its value is “neither thrombi, nor histological or morphological abnormalities were visible”.

And the coagulation time ([3]; 20,000 molecules of tTF per cell)?
Its coagulation time is 140 s.

And the coagulation time ([3]; 300,000 molecules of tTF per cell)?
The coagulation time was 40 s.

And the “concentration at which plasma coagulated in 50 seconds” value ([3]; bound via B21-2/10H10 to A20 cells, separate studies per block)?
The value was 3 nM.

What about the “effect on coagulation time” value ([3]; cells incubated with tTF alone (not bound)) of the same substance?
Its value is “no effect on coagulation time”.

What about the “time to visible fibrin strands after addition of mouse plasma” value ([3]; tTF bound to A20 cells by B21-2/10H10, untreated cells 164 seconds) of the same substance?
Its value is 36 s.
